Entries after “also recorded” stand apart in the source; their conditions may differ.
System: MIA-induced osteoarthritis rats
Assay: Therapeutic efficacy of oral rebamipide in monosodium iodoacetate (MIA)-induced osteoarthritis in rats
Type: in vivo, Wistar rats
Protocol: About 5 week old male Wistar rats were used. Monosodium iodoacetate (MIA) was dissolved in a physiological saline; and then administered to the rats in the dose of 4 mg/50 μl via the right knee thereof, so as to induce osteoarthritis. The rats were divided into 3 groups, each having 5 rats. The first group (non-arthritis) was a non-treated group, i.e., a normal control group. The second group (MIA) was an osteoarthritis-induced group through the MIA administration. The rats of the third group (MIA+Rebamipide) were administered with the MIA to induce osteoarthritis; and then orally administered with rebamipide every day for 7 days. At the 7th day after the MIA induction, the femurs and the tibias were isolated from the rats of each group and then observed under a dissecting microscope. After H&E staining, the knee joint sites were observed through a low-magnification lens. In the results, the nucleus is shown in blue-violet color and the cytoplasm is shown in pink color. […] The knee joints were stained with Safranin O, which can show losses of the cartilage proteoglycans. The tartrate-resistant acid phosphatase (TRAP) staining for osteoclasts, was performed at 37° C. for 30 minutes, using a leukocyte acid phosphatase kit (Sigma 387-A, USA). The TRAP-positive cells were shown in red-violet color. The multinucleated cells (having above 3 nuclei) were considered as TRAP-positive cells (osteoclasts), which were counted under an optical microscope.

O=C(NC(Cc1cc(=O)[nH]c2ccccc12)C(=O)O)c1ccc(Cl)cc1 (stereo not drawn) [rebamipide]
Inflammation by H&E staining (MIA+Rebamipide group in comparison with the MIA group, oral, 7 days): favorably changed | Cartilage damage by histological analyses (TRAP, safranin O, H&E staining) (MIA+Rebamipide group vs MIA group, oral, 7 days): remained intact without destruction | Safranin O staining of femoral cartilage site (proteoglycan loss, surface) (MIA+Rebamipide group, oral, 7 days, similar to the non-arthritis group): smooth and shown in strong orange-red color | Cartilage damage of isolated femurs and tibias observed under a dissecting microscope (male Wistar rats, MIA 4 mg/50 μl via right knee, rebamipide orally every day for 7 days, 7th day after MIA induction): significantly inhibited; also recorded: little damages in the cartilage sites | Number of osteoclasts in the tibial subchondral bone via TRAP staining (rebamipide group in comparison with the MIA group, oral, 7 days): significantly reduced | Histology grade evaluation (standards of Table 1, FIG. 3): cartilage surface and safranin O loss (rebamipide-treated group, oral, 7 days): only a little loss of safranin O in the cartilage site
